The values below come from US9586921B2, “Burdock fruit extract containing arctigenin at high content and process for producing same” (Kracie Pharma, Ltd., priority 2009, dated 2017).

In experiment [1] the test system is PSN-1. The experiment is described as follows: Cytotoxic evaluation using the cultured cell (WST-8 viability), PSN-1. It is filed as cell-based, human. To be noted: PSN-1, DMEM (normal nutritional condition) and NDM (nutrient starvation). As to the method: (§1) [Test 2] (Cytotoxic Evaluation Using the Cultured Cell)
(§2) The pancreas cancer cell line, CAPAN-1, PANC-1 and PSN-1 were plated to the 96 well plate, and they were pre-cultured in DMEM culture media in 37° C., 5% CO2 and 95% Air under normal nutritional condition for 24 hours. After washing these cells with PBS, the extracts which were extracted by the different methods in DMEM culture media (ending D in the graph) which is normal nutritional condition and in NDM culture media (ending I in the graph) which are a nutrient starvation condition (Example 2 and comparative example 2 in the graph) were added to each well including constant concentration of arctigenin, and incubated for 24 hours. The cells were washed in PBS again, 100 μL of DMEM culture media including 10% WST-8 was added to be reacted for two hours and measured the absorbance of 450 nm by the microplate reader, and viability of these cells were evaluated.

For experiment [2], the system named is PANC-1. As to the kind of experiment: Cytotoxic evaluation using the cultured cell (WST-8 viability), PANC-1. It is filed as cell-based. To be noted: PANC-1, DMEM (normal nutritional condition) and NDM (nutrient starvation). How it is done: as §1, §2
Experiment [3] concerns CAPAN-1. The experiment is described as follows: Cytotoxic evaluation using the cultured cell (WST-8 viability), CAPAN-1. It is filed as cell-based, human. To be noted: CAPAN-1, DMEM (normal nutritional condition) and NDM (nutrient starvation). As to the method: as §1, §2
Experiment [4] has as its system pancreas cancer cell line PANC-1. To be noted: PANC-1, undernutrition condition; non-patent document 1; cited from earlier work.
In experiment [5] the test system is PSN-1 Xenografts. As to the kind of experiment: Evaluation of the anticancer activity in the model animal of tumor (PSN-1 Xenografts). Type of experiment: in vivo, nude mouse. To be noted: PSN-1 xenograft, 50 μg per mouse by mouth five times a week, one month after beginning of dosage, FIG. 6. How it is done:
(§3) [Test 3] (the Evaluation of the Anticancer Activity in the Model Animal of Tumor) (Method for Test) The subcutaneous dorsales of nude mouse (BALB-cAJ nu/nu; Nippon Kurea) which is the donor was inoculated the human pancreas cancer cell line, CAPAN-1 or PSN-1, and the obtained tumor mass of the donor mouse was transplanted into the subcutaneous dorsales of the recipient mouse to generate the model animal of tumor. […] The anticancer activity was evaluated by measuring the size of the tumor mass of subcutaneous dorsales sequentially.

For experiment [6], the system named is CAPAN-1 Xenografts. The experiment is described as follows: Evaluation of the anticancer activity in the model animal of tumor (CAPAN-1 Xenografts). Type of experiment: in vivo, nude mouse. Conditions: CAPAN-1 xenograft, 50 μg per mouse by mouth five times a week, one month after beginning of dosage, FIG. 5. As to the method:
as §3

Regarding `COc1ccc(C[C@H]2COC(=O)[C@@H]2Cc2ccc(O[C@@H]3O[C@H](CO)[C@@H](O)[C@H](O)[C@H]3O)c(OC)c2)cc1OC` [arctiin], the anticancer activity result in experiment [1], in experiment [2] and in experiment [3] was “in neither condition” throughout.

As to `COc1cc(C[C@H]2C(=O)OC[C@@H]2Cc2ccc(OC)c(OC)c2)ccc1O` [arctigenin], in experiment [4], the “effect in screen for release of viability of tumor cells in the undernutrition condition” value is “effective”. Further, the “antitumor effect (size of the tumor mass)” value in experiment [5] and in experiment [6] was “antitumor effect was also obtained” each time.
